From PMC10227015, “From a drug repositioning to a structure-based drug design approach to tackle acute lymphoblastic leukemia” (Nature Communications, 2023)
Where “and” joins values, the source holds several entries; their conditions need not be identical. Equal entries are not always repeated.

How the values were obtained:
FGFR2 = target: T1, FGFR2 (Homo sapiens, UniProt P21802); experiment: KINOMEscan competition binding; conditions: OR0642 1 µM; read-out: %Control
T1 construct: purchased Eurofins DiscoverX (KINOMEscan scanEDGE 97)
Method: (§1) Kinome profiling was provided by Eurofins DiscoverX Corporation. Determination of the % control activity for 97 kinases was obtained through an active site-directed competition binding assay that quantitatively measure interactions between compound and kinases. OR0642 was used at 1 μM.
(§2) Supplementary Table 3. KINOMEscan™ Profiling of OR0642. Competition binding assay to
(§3) quantitatively measure interactions between OR0642 (1 µM) and 97 human kinases and disease
(§4) relevant mutant variants.

IKK-beta = target: T2, IKK-beta (Homo sapiens, UniProt O14920); experiment: KINOMEscan competition binding; conditions: OR0642 1 µM; read-out: %Control
T2 construct: purchased Eurofins DiscoverX (KINOMEscan scanEDGE 97)
Method: as §1, §2, §3, §4

MAP3K4 = target: T3, MAP3K4 (Homo sapiens, UniProt Q9Y6R4); experiment: KINOMEscan competition binding; conditions: OR0642 1 µM; read-out: %Control
T3 construct: purchased Eurofins DiscoverX (KINOMEscan scanEDGE 97)
Method: as §1, §2, §3, §4

PIK3C2B = target: T4, PIK3C2B (Homo sapiens, UniProt O00750); experiment: KINOMEscan competition binding; conditions: OR0642 1 µM; read-out: %Control
T4 construct: purchased Eurofins DiscoverX (KINOMEscan scanEDGE 97)
Method: as §1, §2, §3, §4

INSR = target: T5, INSR (Homo sapiens, UniProt P06213); experiment: KINOMEscan competition binding; conditions: OR0642 1 µM; read-out: %Control
T5 construct: purchased Eurofins DiscoverX (KINOMEscan scanEDGE 97)
Method: as §1, §2, §3, §4

PIM1 = target: T6, PIM1 (Homo sapiens, UniProt P11309); experiment: KINOMEscan competition binding; conditions: OR0642 1 µM; read-out: %Control
T6 construct: purchased Eurofins DiscoverX (KINOMEscan scanEDGE 97)
Method: as §1, §2, §3, §4

PCTK1 = target: T7, PCTK1 (Homo sapiens, UniProt Q00536); experiment: KINOMEscan competition binding; conditions: OR0642 1 µM; read-out: %Control
T7 construct: purchased Eurofins DiscoverX (KINOMEscan scanEDGE 97)
Method: as §1, §2, §3, §4

FLT3 = target: T8, FLT3 (Homo sapiens, UniProt P36888); experiment: KINOMEscan competition binding; conditions: OR0642 1 µM; read-out: %Control
T8 construct: purchased Eurofins DiscoverX (KINOMEscan scanEDGE 97)
Method: as §1, §2, §3, §4

AURKA = target: T9, AURKA (Homo sapiens, UniProt O14965); experiment: KINOMEscan competition binding; conditions: OR0642 1 µM; read-out: %Control
T9 construct: purchased Eurofins DiscoverX (KINOMEscan scanEDGE 97)
Method: as §1, §2, §3, §4

[1] = target: T10, ABL1(T315I)-phosphorylated (Homo sapiens, UniProt P00519, T315I); experiment: KINOMEscan competition binding; conditions: OR0642 1 µM; read-out: %Control
T10 construct: purchased Eurofins DiscoverX (KINOMEscan scanEDGE 97)
Method: as §1, §2, §3, §4

ACVR1B = target: T11, ACVR1B (Homo sapiens, UniProt P36896); experiment: KINOMEscan competition binding; conditions: OR0642 1 µM; read-out: %Control
T11 construct: purchased Eurofins DiscoverX (KINOMEscan scanEDGE 97)
Method: as §1, §2, §3, §4

AURKB = target: T12, AURKB (Homo sapiens, UniProt Q96GD4); experiment: KINOMEscan competition binding; conditions: OR0642 1 µM; read-out: %Control
T12 construct: purchased Eurofins DiscoverX (KINOMEscan scanEDGE 97)
Method: as §1, §2, §3, §4

KIT = target: T13, KIT (Homo sapiens, UniProt P10721); experiment: KINOMEscan competition binding; conditions: OR0642 1 µM; read-out: %Control
T13 construct: purchased Eurofins DiscoverX (KINOMEscan scanEDGE 97)
Method: as §1, §2, §3, §4

CSNK1D = target: T14, CSNK1D (Homo sapiens, UniProt P48730); experiment: KINOMEscan competition binding; conditions: OR0642 1 µM; read-out: %Control
T14 construct: purchased Eurofins DiscoverX (KINOMEscan scanEDGE 97)
Method: as §1, §2, §3, §4

PAK2 = target: T15, PAK2 (Homo sapiens, UniProt Q13177); experiment: KINOMEscan competition binding; conditions: OR0642 1 µM; read-out: %Control
T15 construct: purchased Eurofins DiscoverX (KINOMEscan scanEDGE 97)
Method: as §1, §2, §3, §4

CDK3 = target: T16, CDK3 (Homo sapiens, UniProt Q00526); experiment: KINOMEscan competition binding; conditions: OR0642 1 µM; read-out: %Control
T16 construct: purchased Eurofins DiscoverX (KINOMEscan scanEDGE 97)
Method: as §1, §2, §3, §4

AXL = target: T17, AXL (Homo sapiens, UniProt P30530); experiment: KINOMEscan competition binding; conditions: OR0642 1 µM; read-out: %Control
T17 construct: purchased Eurofins DiscoverX (KINOMEscan scanEDGE 97)
Method: as §1, §2, §3, §4

MKNK2 = target: T18, MKNK2 (Homo sapiens, UniProt Q9HBH9); experiment: KINOMEscan competition binding; conditions: OR0642 1 µM; read-out: %Control
T18 construct: purchased Eurofins DiscoverX (KINOMEscan scanEDGE 97)
Method: as §1, §2, §3, §4

CHEK1 = target: T19, CHEK1 (Homo sapiens, UniProt O14757); experiment: KINOMEscan competition binding; conditions: OR0642 1 µM; read-out: %Control
T19 construct: purchased Eurofins DiscoverX (KINOMEscan scanEDGE 97)
Method: as §1, §2, §3, §4

DYRK1B = target: T20, DYRK1B (Homo sapiens, UniProt Q9Y463); experiment: KINOMEscan competition binding; conditions: OR0642 1 µM; read-out: %Control
T20 construct: purchased Eurofins DiscoverX (KINOMEscan scanEDGE 97)
Method: as §1, §2, §3, §4

IGF1R = target: T21, IGF1R (Homo sapiens, UniProt P08069); experiment: KINOMEscan competition binding; conditions: OR0642 1 µM; read-out: %Control
T21 construct: purchased Eurofins DiscoverX (KINOMEscan scanEDGE 97)
Method: as §1, §2, §3, §4

ERBB2 = target: T22, ERBB2 (Homo sapiens, UniProt P04626); experiment: KINOMEscan competition binding; conditions: OR0642 1 µM; read-out: %Control
T22 construct: purchased Eurofins DiscoverX (KINOMEscan scanEDGE 97)
Method: as §1, §2, §3, §4

CDK7 = target: T23, CDK7 (Homo sapiens, UniProt P50613); experiment: KINOMEscan competition binding; conditions: OR0642 1 µM; read-out: %Control
T23 construct: purchased Eurofins DiscoverX (KINOMEscan scanEDGE 97)
Method: as §1, §2, §3, §4

ERK1 = target: T24, ERK1 (Homo sapiens, UniProt P27361); experiment: KINOMEscan competition binding; conditions: OR0642 1 µM; read-out: %Control
T24 construct: purchased Eurofins DiscoverX (KINOMEscan scanEDGE 97)
Method: as §1, §2, §3, §4

BTK = target: T25, BTK (Homo sapiens, UniProt Q06187); experiment: KINOMEscan competition binding; conditions: OR0642 1 µM; read-out: %Control
T25 construct: purchased Eurofins DiscoverX (KINOMEscan scanEDGE 97)
Method: as §1, §2, §3, §4

DCAMKL1 = target: T26, DCAMKL1 (Homo sapiens, UniProt O15075); experiment: KINOMEscan competition binding; conditions: OR0642 1 µM; read-out: %Control
T26 construct: purchased Eurofins DiscoverX (KINOMEscan scanEDGE 97)
Method: as §1, §2, §3, §4

EGFR = target: T27, EGFR (Homo sapiens, UniProt P00533); experiment: KINOMEscan competition binding; conditions: OR0642 1 µM; read-out: %Control
T27 construct: purchased Eurofins DiscoverX (KINOMEscan scanEDGE 97)
Method: as §1, §2, §3, §4

PDGFRA = target: T28, PDGFRA (Homo sapiens, UniProt P16234); experiment: KINOMEscan competition binding; conditions: OR0642 1 µM; read-out: %Control
T28 construct: purchased Eurofins DiscoverX (KINOMEscan scanEDGE 97)
Method: as §1, §2, §3, §4

[2] = target: T29, ABL1(E255K)-phosphorylated (Homo sapiens, UniProt P00519, E255K); experiment: KINOMEscan competition binding; conditions: OR0642 1 µM; read-out: %Control
T29 construct: purchased Eurofins DiscoverX (KINOMEscan scanEDGE 97)
Method: as §1, §2, §3, §4

MARK3 = target: T30, MARK3 (Homo sapiens, UniProt P27448); experiment: KINOMEscan competition binding; conditions: OR0642 1 µM; read-out: %Control
T30 construct: purchased Eurofins DiscoverX (KINOMEscan scanEDGE 97)
Method: as §1, §2, §3, §4

EGFR(L858R) = target: T31, EGFR(L858R) (Homo sapiens, UniProt P00533, L858R); experiment: KINOMEscan competition binding; conditions: OR0642 1 µM; read-out: %Control
T31 construct: purchased Eurofins DiscoverX (KINOMEscan scanEDGE 97)
Method: as §1, §2, §3, §4

PAK1 = target: T32, PAK1 (Homo sapiens, UniProt Q13153); experiment: KINOMEscan competition binding; conditions: OR0642 1 µM; read-out: %Control
T32 construct: purchased Eurofins DiscoverX (KINOMEscan scanEDGE 97)
Method: as §1, §2, §3, §4

ADCK3 = target: T33, ADCK3 (Homo sapiens, UniProt Q8NI60); experiment: KINOMEscan competition binding; conditions: OR0642 1 µM; read-out: %Control
T33 construct: purchased Eurofins DiscoverX (KINOMEscan scanEDGE 97)
Method: as §1, §2, §3, §4

CDK9 = target: T34, CDK9 (Homo sapiens, UniProt P50750); experiment: KINOMEscan competition binding; conditions: OR0642 1 µM; read-out: %Control
T34 construct: purchased Eurofins DiscoverX (KINOMEscan scanEDGE 97)
Method: as §1, §2, §3, §4

[3] = system: UPNT525 patient-derived xenograft; experiment: T-ALL PDX mouse model UPNT525; type: in vivo; set-up: hCD45+ populations determined by flux cytometry at day 19: unit not given here
Method: Temperature was maintained between 20 and 24 °C and the hygrometry between 40 and 60%. Sex was not considered in the study design and studies were realized in male mice, as toxicity and pharmacokinetics were performed previously in male mice. […] OR0642 was administered in its hydrochloride salt form (OR0642-HCl). Drug administration protocol is detailed in Fig. 4a. […] Patient-derived xenograft was generated from a primary-T-ALL (UPNT525) sample[28],[29]. Briefly, we injected 1,000,000 cells in 100 μl of PBS by intravenous (IV) retro orbital injection in NSG mice. […] Drug administration protocol is detailed in Fig. 5d. Disease propagation was monitored at day 19 by hCD45 detection in peripheral blood. […] Figures exemplifying the gating strategy are provided in the Supplementary Information (Supplementary Figs. 32 and 33).

[4] = PDX mouse model UPNT525, dT 1,5 g/Kg, individual mice

CCCN(c1nc(-c2nc(N)cc(N)n2)cs1)c1cc(-c2ccc(S(=O)(=O)N3CCN(C)CC3)cc2C(F)(F)F)ccc1C [OR0642] showed a remaining binding at 1 µM (FGFR2) of 89%, a remaining binding at 1 µM (IKK-beta) of 90% and a remaining binding at 1 µM (MAP3K4) of 97%. For the same molecule, the remaining binding at 1 µM (PIK3C2B) was 100%, the remaining binding at 1 µM (INSR) was 99% and the remaining binding at 1 µM (PIM1) was 100%. The remaining binding at 1 µM (PCTK1) was 98%, the remaining binding at 1 µM (FLT3) was 100% and the remaining binding at 1 µM (AURKA) was 96%. It also gave a remaining binding at 1 µM [1] of 89%, a remaining binding at 1 µM (ACVR1B) of 86% and a remaining binding at 1 µM (AURKB) of 85%. It also gave a remaining binding at 1 µM (KIT) of 91%, a remaining binding at 1 µM (CSNK1D) of 100% and a remaining binding at 1 µM (PAK2) of 98%. The remaining binding at 1 µM (CDK3) was 97%, the remaining binding at 1 µM (AXL) was 89% and the remaining binding at 1 µM (MKNK2) was 79%. The remaining binding at 1 µM (CHEK1) was 91%, the remaining binding at 1 µM (DYRK1B) was 100% and the remaining binding at 1 µM (IGF1R) was 93%. It also gave a remaining binding at 1 µM (ERBB2) of 100%, a remaining binding at 1 µM (CDK7) of 94% and a remaining binding at 1 µM (ERK1) of 86%. The remaining binding at 1 µM (BTK) was 92%, the remaining binding at 1 µM (DCAMKL1) was 81% and the remaining binding at 1 µM (EGFR) was 82%. It also gave a remaining binding at 1 µM (PDGFRA) of 97%, a remaining binding at 1 µM [2] of 96% and a remaining binding at 1 µM (MARK3) of 100%. For the same molecule, the remaining binding at 1 µM (EGFR(L858R)) was 72%, the remaining binding at 1 µM (PAK1) was 100% and the remaining binding at 1 µM (ADCK3) was 95%. The remaining binding at 1 µM (CDK9) was 98%.

With Cc1cn([C@H]2C[C@H](O)[C@@H](CO)O2)c(=O)[nH]c1=O [dT, thymidine] the Survival days [3, 4] was 26 days and 38 days and 42 days, the “hCD45+ populations determined by flux cytometry at day 19” value [3, 4] was 164 and 330 and 108 and 177 and 168 and 318 and the median survival ([3]; dT 1.5 g/kg, OR0642 40 mg/kg IP BID 5 days a week) was 38 days. The “effect on disease progression” value ([3]; day 19) was “significant decrease in disease progression”.
